From patent US5707966A, “Antithrombotic agents” (Eli Lilly and Company, priority 1995, dated 1998)
Counter-ions that a name gives are not always drawn. Like-named read-outs stand apart in the source and are kept apart here.

Tests used:
Assay type in all cases: biochemical
Human Thrombin = Human Thrombin (Homo sapiens, UniProt P00734); assay: Inhibition of amidase activity of thrombin (Kass)
Bovine trypsin = target: T1, Bovine trypsin (Bos taurus, UniProt P00760); assay: Kass with trypsin, chromogenic substrate; settings: substrate N-Benzoyl-Phe-Val-Arg-p-nitroanilide
T1 construct: Bovine trypsin is purchased; purchased Worthington Biochemicals, Freehold, N.J
T1 sequence (P00760 24-246): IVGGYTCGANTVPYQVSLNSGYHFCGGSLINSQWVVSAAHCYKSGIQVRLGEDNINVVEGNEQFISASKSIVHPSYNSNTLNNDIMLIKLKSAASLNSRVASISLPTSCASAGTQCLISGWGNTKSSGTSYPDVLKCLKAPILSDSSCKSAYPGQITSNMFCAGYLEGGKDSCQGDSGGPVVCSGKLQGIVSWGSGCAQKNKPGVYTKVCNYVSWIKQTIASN
Protocol: By substantially following the procedures described above for human thrombin, and using other human blood coagulation system serine proteases and proteases of the fibrinolytic system with the appropriate chromogenic substrates, identified below, selectivity of the compounds of the present invention with respect to the coagulation factor serine proteases and with respect to the fibrinolytic system serine proteases are evaluated as well as their substantial lack of interference with serine proteases of the fibrinolytic system. Thrombin inhibitors preferably should spare fibrinolysis induced by urokinase, tissue plasminogen activator (t-PA) and streptokinase. This would be important to the therapeutic use of such agents as an adjunct to streptokinase, t-PA or urokinase thrombolytic therapy and to the use of such agents as an endogenous fibrinolysis-sparing (with respect to t-PA and urokinase) antithrombotic agent. In addition to the lack of interference with the amidase activity of the fibrinolytic proteases, such fibrinolytic system sparing can be studied by the use of human plasma clots and their lysis by the respective fibrinolytic plasminogen activators.
Human factors X, Xa, IXa, XIa, and XIIa are purchased from Enzyme Research Laboratories, South Bend, Ind.; human urokinase from Leo Pharmaceuticals, Denmark; and recombinant activated Protein C (aPC) is prepared at Eli Lilly and Co. substantially according to U.S. Patent No. 4,981,952. Chromogenic substrates: N-Benzoyl-Ile-Glu-Gly-Arg-p-nitroanilide (for factor Xa); N-Cbz-D-Arg-Gly-Arg-p-nitroanilide (for factor IXa assay as the factor Xa substrate); Pyroglutamyl-Pro-Arg-p-nitroanilide (for Factor XIa and for aPC); H-D-Pro-Phe-Arg-p-nitroanilide (for factor XIIa); and Pyroglutamyl-Gly-Arg-p-nitroanilide (for urokinase); are purchased from KabiVitrum, Stockholm, Sweden, or from Midwest Biotech, Fishers, Ind. Bovine trypsin is purchased from Worthington Biochemicals, Freehold, N.J., and human plasma kallikrein from Kabi Vitrum, Stockholm, Sweden. Chromogenic substrate H-D-Pro-Phe-Arg-p-nitroanilide for plasma kallikrein is purchased from Kabi Vitrum, Stockholm, Sweden. N-Benzoyl-Phe-Val-Arg-p-nitroanilide, the substrate for human thrombin and for trypsin, is synthesized according to procedures described above for the compounds of the present invention, using known methods of peptide coupling from commercially available reactants or purchased from Midwest Biotech, Fishers, Ind.

Human plasma [1] = assay: Human plasma anticoagulation, thrombin time (TT); settings: concentration required to double the thrombin time, linear extrapolation
Protocol: (§1) Dog plasma and rat plasma is obtained from conscious mixed-breed hounds (either sex, Hazelton-LRE, Kalamazoo, Mich., U.S.A.) or from anesthetized male Sprague-Dawley rats (Harlan Sprague-Dawley, Inc., Indianapolis, Ind., U.S.A.) by venipuncture into 3.8 percent citrate. Fibrinogen is prepared from in-date ACD human blood as the fraction I-2 according to previous procedures and specifications. […] Human fibrinogen is also purchased as 98 percent pure/plasmin free from American Diagnostica, Greenwich, Conn. Coagulation reagents ACTIN, Thromboplastin, and Human plasma are from Baxter Healthcare Corp., Dade Division, Miami, Fla. Bovine thrombin from Parke-Davis ([…], Mich.) is used for coagulation assays in plasma.
(§2) Coagulation assay procedures are as previously described. […] A CoAScreener coagulation instrument (American LABor, Inc.) is used for all coagulation assay measurements. The prothrombin time (PT) is measured by adding 0.05 mL saline and 0.05 mL Thromboplastin-C reagent to 0.05 mL test plasma. The activated partial thromboplastin time (APTT) is measured by incubation of 0.05 mL test plasma with 0.05 mL Actin reagent for 120 seconds followed by 0.05 mL CaCl2 (0.02M). The thrombin time (TT) is measured by adding 0.05 mL saline and 0.05 mL thrombin (10 NIH units/mL) to 0.05 mL test plasma. The compounds of Formula I are added to human or animal plasma over a wide range of concentrations to determine prolongation effects on the APTT, PT, and TT assays. Linear extrapolations are performed to estimate the concentrations required to double the clotting time for each assay.

Human plasma [2] = assay: Human plasma anticoagulation, activated partial thromboplastin time (APTT); settings: concentration required to double the APTT, linear extrapolation
Protocol: as §1, §2

Human plasma [3] = assay: Human plasma anticoagulation, prothrombin time (PT); settings: concentration required to double the PT, linear extrapolation
Protocol: as §1, §2

[4] = mean over a range of concentrations, […]

SMILES | Kass Human Thrombin (Human Thrombin; [4]) | Kass Trypsin (Bovine trypsin) | Human Plasma Anticoagulation 2× Clotting time TT (Human plasma [1]) | Human Plasma Anticoagulation 2× Clotting time APTT (Human plasma [2]) | Human Plasma Anticoagulation 2× Clotting time PT (Human plasma [3]) | Kass Human Thrombin (Human Thrombin)
Nc1ccc(CCNC(=O)[C@@H]2CCCN2C(=O)[C@@H](CC2CCCCC2)NCC(=O)O)cc1 [Example 63, HO2 CCH2 -D-Cha-Pro-4-NHCH2 CH2 C6 H4 NH2.HCl] | 0.31 × 10^6 (L/mole) |  | 680 ng/mL |  |  | 
Cl.N=C(N)c1cc(CNC(=O)[C@@H]2CCCN2C(=O)[C@@H](CC2CCCCC2)NCC(=O)O)cs1 [Example 65, HO2 CCH2 -D-Cha-pro-4-NHCH2-2-amidinothiophene.HCl] | 4,500 × 10^6 (L/mole) | 570 × 10^6 (L/mole) | 1 ng/mL | 48 ng/mL |  | 
N=C(N)c1ccc(CNC(=O)[C@@H]2CCCN2C(=O)[C@@H](CC2CCCCC2)NCC(=O)O)nc1 [Example 66, HO2 CCH2 -D-Cha-Pro-2-NHCH2 -5-amidinopyridine.HCl] | 120 × 10^6 (L/mole) | 4.6 × 10^6 (L/mole) | 7.9 ng/mL | 180 ng/mL | 270 ng/mL | 
N=C(N)C1CCC(CNC(=O)[C@@H]2CCCN2C(=O)[C@@H](CC2CCCCC2)NCC(=O)O)NC1 (stereo partly drawn) [Example 67, HO2 CCH2 -D-Cha-pro-2-NHCH2-5-amidinopiperidine.HCl] |  |  | 34 ng/mL | 1,800 ng/mL | 1,300 ng/mL | 11
N=C(N)C1=CNC(CNC(=O)[C@@H]2CCCN2C(=O)[C@@H](CC2CCCCC2)NCC(=O)O)CC1 (stereo partly drawn) [Example 68, HO2 CCH2 -D-Cha-Pro-2-NHCH2 -5-amidino-5,6-dehydro-piperidine.HCl] | 600 × 10^6 (L/mole) |  | 4 ng/mL | 49 ng/mL | 190 ng/mL | 
N=C(N)N1CC=C(CNC(=O)[C@@H]2CCCN2C(=O)[C@@H](CC2CCCCC2)NCC(=O)O)CC1 [Example 70, HO2 CCH2 -D-Cha-Pro-4-NHCH2 -1-amidino-3,4-dehydro-piperidine.HCl] | 430 × 10^6 (L/mole) | 9.8 × 10^6 (L/mole) | 2 ng/mL | 160 ng/mL | 180 ng/mL | 
Nc1cc(CCNC(=O)[C@@H]2CCCN2C(=O)[C@@H](CC2CCCCC2)NCC(=O)O)ccn1 [Example 76, HO2 CCH2 -D-Cha-Pro-4-NHCH2 CH2 -2-aminopyridine.HCl] | 12 × 10^6 (L/mole) | 0.36 × 10^6 (L/mole) | 29 ng/mL | 490 ng/mL | 560 ng/mL | 
Nc1ccc(CNC(=O)[C@@H]2CCCN2C(=O)[C@@H](CC2CCCCC2)NCC(=O)O)cc1F [Example 77, HO2 CCH2 -D-Cha-Pro-4-NHCH2 -2-F-aniline.HCl] |  |  | 53 ng/mL | 1,600 ng/mL | 890 ng/mL | 11

Further lines, with some results ahead:

Kass Human Thrombin (Human Thrombin; [4]) | Kass Trypsin (Bovine trypsin) | SMILES | Human Plasma Anticoagulation 2× Clotting time TT (Human plasma [1]) | Human Plasma Anticoagulation 2× Clotting time APTT (Human plasma [2]) | Human Plasma Anticoagulation 2× Clotting time PT (Human plasma [3]) | Kass Human Thrombin (Human Thrombin)
0.02 × 10^6 (L/mole) | < 0.009 × 10^6 (L/mole) | CCS(=O)(=O)N[C@H](Cc1ccccc1)C(=O)N1CCC[C@H]1C(=O)NCCc1cccc(NC(=N)N)c1 [Example 37, EtSO2 -D-Phe-Pro-m-NHCH2 CH2 C6 H4 NHC(NH)NH2.HCl] | > 9,000 ng/mL | > 9,000 ng/mL | > 9,000 ng/mL | 
7.6 × 10^6 (L/mole) |  | Nc1ccc(CNC(=O)[C@@H]2CCCN2C(=O)[C@@H](CC2CCCCC2)NCC(=O)O)cc1 [Example 62, HO2 CCH2 -D-Cha-Pro-4-NHCH2 C6 H4 NH2.HCl] | 54 ng/mL |  |  | 
340 × 10^6 (L/mole) | 3.7 × 10^6 (L/mole) | N=C(N)c1ccc(CNC(=O)[C@@H]2CCCN2C(=O)[C@@H](CC2CCCCC2)NCC(=O)O)nn1 [Example 69, HO2 CCH2 -D-Cha-Pro-3-NHCH2 -6-amidinopyridazine.HCl] | 5 ng/mL | 110 ng/mL | 220 ng/mL | 
1,400 × 10^6 (L/mole) | 240 × 10^6 (L/mole) | N=C(N)c1ccc(CNC(=O)[C@@H]2CCCN2C(=O)[C@@H](CC2CCCCC2)NCC(=O)O)c(F)c1 [Example 71, HO2 CCH2 -D-Cha-Pro-4-NHCH2 -3-F-benzamidine.HCl] | 1 ng/mL | 89 ng/mL | 150 ng/mL | 
2,300 × 10^6 (L/mole) | 280 × 10^6 (L/mole) | N=C(N)c1cc(F)c(CNC(=O)[C@@H]2CCCN2C(=O)[C@@H](CC2CCCCC2)NCC(=O)O)c(F)c1 [Example 72, HO2 CCH2 -D-Cha-Pro-4-NHCH2 -3,5-F2 -benzamidine.HCl] | 1 ng/mL | 160 ng/mL | 160 ng/mL | 
28 × 10^6 (L/mole) |  | Nc1cc(CNC(=O)[C@@H]2CCCN2C(=O)[C@@H](CC2CCCCC2)NCC(=O)O)ccn1 [Example 73, HO2 CCH2 -D-Cha-Pro-4-NHCH2 -2-aminopyridine.HCl] | 21 ng/mL | 340 ng/mL | 330 ng/mL | 
29 × 10^6 (L/mole) |  | Nc1ccc(CNC(=O)[C@@H]2CCCN2C(=O)[C@@H](CC2CCCCC2)NCC(=O)O)cn1 [Example 74, HO2 CCH2 -D-Cha-Pro-5-NHCH2 -2-aminopyridine.HCl] | 20 ng/mL | 420 ng/mL | 350 ng/mL | 
0.45 × 10^6 (L/mole) |  | Nc1ccc(CCNC(=O)[C@@H]2CCCN2C(=O)[C@@H](CC2CCCCC2)NCC(=O)O)cn1 [Example 75, HO2 CCH2 -D-Cha-Pro-5-NHCH2 CH2 -2-aminopyridine.HCl] |  |  |  | 
5.0 × 10^6 (L/mole) |  | CCS(=O)(=O)N[C@H](CC1CCCCC1)C(=O)N1CCC[C@H]1C(=O)NCc1ccc(N)cc1F [Example 82, EtSO2 -D-Cha-Pro-4-NHCH2 -3-F-C6 H3 NH2.HCl] | 130 ng/mL | 3,800 ng/mL | 3,000 ng/mL | 
